Reference: ChEMBL document CHEMBL5346962, “Discovery of Sulanemadlin (ALRN-6924), the First Cell-Permeating, Stabilized α-Helical Peptide in Clinical Development” (J Med Chem, 2023)
Active and inactive are the calls of the source. The rule behind the calls is not given here.

Columns and labels:
[1] = AUC (all) in rat at 10 mg/kg by LC-MS/MS analysis; format: ADME, organism-based; design: dose 10 mg/kg; conditions: in vivo
[2] = Plasma protein binding in human assessed as unbound fraction at >200 uM; format: ADME, cell-free
[3] = Plasma protein binding in human assessed as unbound fraction upto 150 uM; format: ADME, cell-free
Bone marrow cell [4] = assay: Upregulation of p21 mRNA level in bone marrow cells of C57BL/6 mouse at 2.4 mg/kg, iv measured for 24 hrs by qRT-PCR analysis; format: functional, organism-based
Bone marrow cell [5] = assay: Upregulation of Noxa mRNA level in bone marrow cells of C57BL/6 mouse at 10 mg/kg, iv measured for 24 hrs by qRT-PCR analysis; format: functional, organism-based
Bone marrow cell [6] = assay: Upregulation of serum MIC-1 level […] of C57BL/6 mouse at 2.4 mg/kg, iv administered every 8 hrs measured for 24 hrs by ELISA method; format: functional, organism-based
[7] = Drug uptake in tumor of athymic nu/nu mouse xenografted with human SJSA-1 cells assessed as half life of metabolite ALRN-8714 at 25 mg/kg, iv measured for 24 hrs by LC-MS-MS analysis; format: ADME, organism-based, Neoplasm; conditions: in vivo
[8] = Clearance in mouse at 5 mg/kg by LC-MS/MS analysis; format: ADME, organism-based; conditions: in vivo
Bone marrow cell [9] = assay: Downregulation of Ki67 expression level in bone marrow cells of C57BL/6 mouse at 2.4 mg/kg, iv administered every 8 hrs measured for 16 hrs by immunohistochemical analysis; format: functional, organism-based
Mus musculus = assay: Protection against topotecan-induced crypt loss in gastrointestinal tract of C57BL/6 mouse at 2.4 mg/kg administered on day 0 to 4 and co-administered 30 mins prior to topotecan on day 1 to 4 followed by topotecan administration on day 5 measured on day 9 by H&E staining based analysis; format: functional, organism-based; conditions: time 9.0 day
[10] = Cmax in cynomolgous monkey at 10 mg/kg by LC-MS/MS analysis; format: ADME, organism-based, Macaca fascicularis; design: dose 10 mg/kg; conditions: cynomolgus monkey, in vivo
[11] = Drug uptake in plasma of athymic nu/nu mouse xenografted with human SJSA-1 cells assessed as half life of metabolite ALRN-8714 at 25 mg/kg, iv measured for 24 hrs by LC-MS-MS analysis; format: ADME, organism-based; conditions: in vivo
[12] = Solubility of the compound in aqueous solution at pH 7.5 incubated for 1 hr by spectrophotometric analysis; format: physicochemical
Bone marrow cell [13] = assay: Protection against cell cycle arrest at S phase in bone marrow cells of C57BL/6 mouse at 10 mg/kg, iv measured for 8 hrs by FACS analysis; format: functional, organism-based
MCF7 [14] = assay: Antitumor activity against human MCF7 cells xenografted in athymic nude BALB/c mouse assessed as tumor regression at 20 mg/kg, iv measured upto 48 hrs by immunohistochemical analysis; format: functional, organism-based
[15] = Toxicity in monkey assessed as NOAEL administered twice weekly for 4 weeks; design: species or system Macaca mulatta; conditions: rhesus monkey, in vivo
[16] = Induction of cell cycle arrest in human CD34+ cells assessed as accumulation at S phase at 10 uM incubated for 24 hrs by flow cytometry (reference value: 27.5 +/- 5.8%); format: toxicity, cell-based; conditions: cd34-positive (myeloid/lymphoid) cell
MCF7 [17] = assay: Antitumor activity against human MCF7 cells xenografted in athymic nude BALB/c mouse assessed as upregulation of p21 protein level at 20 mg/kg, iv by immunohistochemical analysis; format: functional, organism-based; conditions: time <= 48.0 hrs, TDE = time-dependent effect
[18] = Half life in rat at 5 mg/kg by LC-MS/MS analysis; format: ADME, organism-based; conditions: in vivo
[19] = AUC (all) in cynomolgous monkey at 5 mg/kg by LC-MS/MS analysis; format: ADME, organism-based, Macaca fascicularis; design: dose 5 mg/kg; conditions: cynomolgus monkey, in vivo
[20] = Induction of cell cycle arrest in human CD34+ cells assessed as accumulation at S phase at 5 uM incubated for 24 hrs by flow cytometry (reference value: 27.5 +/- 5.8%); format: toxicity, cell-based; conditions: cd34-positive (myeloid/lymphoid) cell
[21] = Cmax in mouse at 5 mg/kg by LC-MS/MS analysis; format: ADME, organism-based; design: dose 5 mg/kg; conditions: in vivo
[22] = Plasma protein binding in mouse at 2 to 50 uM; format: ADME, cell-free; conditions: dose 2-50 µM, read-out: PPB (converted)
[23] = Clearance in cynomolgous monkey at 10 mg/kg by LC-MS/MS analysis; format: ADME, organism-based, Macaca fascicularis; conditions: cynomolgus monkey, in vivo
[24] = Clearance in rat at 2.5 mg/kg by LC-MS/MS analysis; format: ADME, organism-based; conditions: in vivo
Fibroblast [25] = assay: Protection against chemotherapy-induced apoptosis in human fibroblast assessed as decrease in caspase-3/7 level preincubated for 16 hrs followed by oxaliplatin addition measured after 32 hrs; format: functional, cell-based; conditions: dose 4.6-10 µM, time 48.0 hrs
SJSA-1 [26] = assay: Antitumor activity against human SJSA-1 cells xenografted in athymic nu/nu mouse […] assessed as tumor growth inhibition administered intravenously thrice a week measured for 15 days; format: functional, cell-based; conditions: dose 13.3 mg/kg, route iv, time 15.0 day
[27] = tested on: CD34-positive (myeloid/lymphoid) cell; assay: Protection against chemotherapy-induced cell cycle arrest in human CD34+ cells assessed as DNA damage by measuring gamma-H2AX level at 1 uM preincubated for 24 hrs followed by topotecan addition measured after 24 hrs; format: functional, cell-based; conditions: time 48.0 hrs
MCF7 [28] = assay: Antitumor activity against human MCF7 cells xenografted in athymic nude BALB/c mouse assessed as increase in cPARP protein level at 20 mg/kg, iv by immunohistochemical analysis; format: functional, organism-based; conditions: time <= 48.0 hrs, TDE = time-dependent effect
Fibroblast [29] = assay: Protection against chemotherapy-induced apoptosis in human fibroblast assessed as decrease in caspase-3/7 level preincubated for 16 hrs followed by vinblastine addition measured after 32 hrs; format: functional, cell-based; conditions: dose 4.6-10 µM, time 48.0 hrs
Bone marrow cell [30] = assay: Upregulation of Puma mRNA level in bone marrow cells of C57BL/6 mouse at 10 mg/kg, iv measured for 24 hrs by qRT-PCR analysis; format: functional, organism-based
MCF7 [31] = assay: Antitumor activity against human MCF7 cells xenografted in athymic nu/nu mouse […] assessed as tumor growth inhibition administered intravenously twice a week measured for 30 days; format: functional, cell-based; conditions: dose 5-20 mg/kg, route iv, time 30.0 day
CTG-0449 = assay: Antitumor activity against patient-derived human CTG-0449 cells xenografted in athymic nu/nu mouse model of AML assessed as tumor growth inhibition administered intravenously twice a week measured for 20 days; format: functional, cell-based; conditions: dose 10-20 mg/kg, route iv, time 20.0 day
Bone marrow cell [32] = assay: Upregulation of p21 expression level in bone marrow cells of C57BL/6 mouse at 2.4 mg/kg, iv administered every 8 hrs measured for 16 hrs by immunohistochemical analysis; format: functional, organism-based
[33] = Drug uptake in plasma of athymic nu/nu mouse xenografted with human SJSA-1 cells assessed as AUC (0 to 24 hrs) of metabolite ALRN-8714 at 25 mg/kg, iv measured for 24 hrs by LC-MS-MS analysis; format: ADME, organism-based; design: time 24 hrs, dose 25 mg/kg, route iv; conditions: in vivo
SJSA-1 [34] = assay: Antitumor activity against human SJSA-1 cells xenografted in athymic nu/nu mouse […] assessed as tumor growth inhibition administered intravenously twice a week measured for 15 days; format: functional, cell-based; conditions: dose 5-20 mg/kg, route iv, time 15.0 day
[35] = Plasma protein binding in dog at 2 to 50 uM; format: ADME, cell-free, Canis lupus familiaris; conditions: dose 2-50 µM, read-out: PPB (converted)
MC-38 = assay: Antitumor activity against mouse MC38 cells allografted in C57BL/6 mouse assessed as reduction in tumor volume at 8 mg/kg administered on day 0 to 4 and co-administered 30 mins prior to topotecan on day 1 to 4 followed by topotecan administration on day 5 measured for 40 days; format: functional, organism-based; conditions: time 40.0 day

CC(=O)N[C@@H](CC(C)C)C(=O)N[C@H](C(=O)N[C@@H](Cc1ccccc1)C(=O)N[C@]1(C)CCCCCC/C=C/CCC[C@@](C)(C(=O)N[C@@H](C)C(=O)N[C@@H](C)C(=O)N[C@@H](C)C(=O)N[C@@H](C)C(=O)N[C@@H](C)C(=O)N[C@H](C)C(N)=O)NC(=O)[C@H](CC(C)C)NC(=O)[C@H](CCC(N)=O)NC(=O)[C@H](C)NC(=O)[C@H](Cc2c[nH]c3ccccc23)NC(=O)[C@H](Cc2ccc(O)cc2)NC(=O)[C@H](CCC(=O)O)NC1=O)[C@@H](C)O
AUC [1]: 562 µg·h/mL | fraction unbound [2]: 0.12 | fraction unbound at up to 150 µM [3]: 0.03 | Activity (Bone marrow cell [4]): Active | Activity (Bone marrow cell [5]): Active | Activity (Bone marrow cell [6]): Active | t1/2 [7]: 9 h | clearance [8]: 0.183 mL/min/kg | Activity (Bone marrow cell [9]): Active | Activity (Mus musculus): Active | Cmax [10]: 236 µg/mL | t1/2 [11]: 8.4 h | solubility at 1 h [12]: ≤ 75 µg/mL | Activity (Bone marrow cell [13]): Active | Activity (MCF7 [14]): inactive | NOAEL at 672 h [15]: 5 mg/kg | Activity [16]: 0.22% | Activity (MCF7 [17]): Tde | half-life [18]: 2 h | AUC [19]: 914 µg·h/mL | Activity [20]: 0.22% | Cmax [21]: 67.8 µg/mL | fraction unbound at up to 50 µM [22]: 0.08 | clearance [23]: 0.127 mL/min/kg | clearance [24]: 0.467 mL/min/kg | Activity (Fibroblast [25]): Dose-Dependent Effect | Activity (SJSA-1 [26]): Dose-Dependent Effect | Activity [27]: inactive | Activity (MCF7 [28]): Tde | Activity (Fibroblast [29]): Dose-Dependent Effect | Activity (Bone marrow cell [30]): Active | Activity (MCF7 [31]): Dose-Dependent Effect | Activity (CTG-0449): Dose-Dependent Effect | Activity (Bone marrow cell [32]): Active | AUC [33]: 85 µg·h/g | Activity (SJSA-1 [34]): Dose-Dependent Effect | fraction unbound at up to 50 µM [35]: 0.08 | Activity (MC-38): Active
